According to patent US8293240B2, “Method of treating drug-resistant cancer” (The Regents of the University of Colorado, priority 2004, dated 2012):

Key:
L1210 DDP = assay: % death of L1210 DDP cells treated or not with cerulenin (flow cytometry); assay type: cell-based; settings: for % Death: 25 ug/mL Cerulenin
Protocol: (§1) Statistical Analysis, Percents, and Geometric Mean Values Percents. Gating is a tool provided by Cell Quest software and allows for the analysis of a certain population of cells. Gating around both the live and dead cell populations gave a percent of the cell numbers that was in each population. After the gates were drawn, a percent value of dead cells was calculated by taking the number of dead cells divided by the number of total cells and multiplying by one hundred.
(§2) This example illustrates an embodiment of the invention, where multi-drug resistant cancer cells were exposed to compositions of the invention. Analysis of the cells was performed using flow cytometry. The flow cytometry experiments were performed as follows. The cells were harvested, counted, and resuspended as described above. For DNA staining, the cells were washed and resuspended in ice-cold PBS and fixed by the dropwise addition of 95% ethanol. The cells were then incubated for 30 minutes on ice, washed, and resuspended in PBS containing 1% formaldehyde and 0.01% Tween. The cells were incubated with 50 units of DNAse and washed with PBS containing 5% DNAse. […] The cells were incubated with 1 mM DCF-DA for 20 minutes, washed twice in PBS containing 5% fetal calf serum and analyzed using flow cytometry. The mitochondrial membrane potential was assessed using MitoTracker Red (CM-H2XROS, Molecular Probes, Eugene, Oreg.). […] The data was acquired on a Coulter Elite Epics or Excel flow cytometer (Coulter, Hialeah, Fla.) and analyzed with CellQuest software, (Becton Dickinson, San Jose, Calif.). […] Each sample population was classified for cell size (forward scatter) and complexity (side scatter), gated on a population of interest and evaluated using 40,000 cells. […]
(§3) The flow cytometry experiments were performed as follows. Once the samples were prepared and transferred into flow cytometric tubes, the samples were analyzed on a Becton/Dickinson Flow Cytometer. […] Statistical analysis, percents, and geometric mean values percents were calculated as described above.

B16F1 = assay: % death of B16F1 cells treated or not with cerulenin (flow cytometry); assay type: cell-based, mouse; settings: B16F1, 25 ug/mL Cerulenin
Protocol: as §1
(§4) This example illustrates an embodiment of the invention, where multi-drug resistant cancer cells were exposed to compositions of the invention. Analysis of the cells was performed using flow cytometry. The flow cytometry experiments were performed as follows. The cells were harvested, counted, and resuspended as described above. For DNA staining, the cells were washed and resuspended in ice-cold PBS and fixed by the dropwise addition of 95% ethanol. The cells were then incubated for 30 minutes on ice, washed, and resuspended in PBS containing 1% formaldehyde and 0.01% Tween. The cells were incubated with 50 units of DNAse and washed with PBS containing 5% DNAse. The cells were then incubated with anti DNA Fab (166, kind gift of Dr. Susan Wallace, University of Vermont), then washed and stained with a fluorescein conjugated second step anti-mouse immunoglobulin. The cells were then washed and resuspended in PBS/3% BSA/1% formaldehyde. The cells were stained for intracellular H2O2 using 6-carboxy-2′,7′-dichlorodihydrofluorescein diacetate (DCF-DA, Molecular Probes, Eugene, Oreg.). The cells were incubated with 1 mM DCF-DA for 20 minutes, washed twice in PBS containing 5% fetal calf serum and analyzed using flow cytometry. The mitochondrial membrane potential was assessed using MitoTracker Red (CM-H2XROS, Molecular Probes, Eugene, Oreg.). The cells were resuspended in warm (37° C.) PBS containing a final concentration of 0.5 micromolar of dye. The cells were then incubated for 30 minutes, pelleted, and resuspended in prewarmed medium for analysis. The data was acquired on a Coulter Elite Epics or Excel flow cytometer (Coulter, Hialeah, Fla.) and analyzed with CellQuest software, (Becton Dickinson, San Jose, Calif.). […] Each sample population was classified for cell size (forward scatter) and complexity (side scatter), gated on a population of interest and evaluated using 40,000 cells. Each figure describing flow cytometric data represents one of at least four replicate experiments. […]
as §3

HL60 = assay: % death / microscopy of HL60 cells treated or not with cerulenin; assay type: cell-based, human; settings: for % Death: HL60, 25 ug/mL Cerulenin
Protocol: as §1, §2
as §3, with “above. […]” for “above.”

HL60 MDR = assay: % death / microscopy of HL60 MDR cells treated or not with cerulenin; assay type: cell-based, human; settings: for % Death: 25 ug/mL Cerulenin
Protocol: as §1, §4
as §3, with “above. […]” for “above.”

B16F1 melanoma cells = assay: mice injected with B16F1 melanoma cells exposed or not to cerulenin; assay type: in vivo; settings: for tumor observation and activity of mouse: B16F1 10^6 cells treated w/25 ug/ml cerulenin 5.0 hrs before injection
Excerpt: Highly carcinogenic B16F1 melanoma cells were either exposed (“treated”) or not exposed to cerulenin, then injected into male mice.

L1210 = assay: % death of L1210 cells treated or not with cerulenin (flow cytometry); assay type: cell-based; settings: L1210, 25 ug/mL Cerulenin
Protocol: as §1
as §2, with “above.” for “above. For DNA staining, the cells were washed and resuspended in ice-cold PBS and fixed by the dropwise addition of 95% ethanol. The cells were then incubated for 30 minutes on ice, washed, and resuspended in PBS containing 1% formaldehyde and 0.01% Tween. The cells were incubated with 50 units of DNAse and washed with PBS containing 5% DNAse.”

[1] = 5-FU that is taken up by the cell; cited from earlier work
[2] = test system: HL60 MDR human leukemia cells; assay: percent death of HL60 MDR cells (flow cytometry, live versus dead); assay type: cell-based
Protocol: Dot plots as a function of live versus dead cells. The cells were cultured at a concentration of 0.5 to 1 million cells per ml. Cells were untreated or treated with or 2-deoxy-D-glucose and/or etomoxir and/or antibodies to UCP2 and used at dilutions or concentrations as indicated on the figure. The cells were cultured in the presence or absence of etomoxir at 100 micrograms/ml for 24 hours followed by treatment with antibody as indicated for an additional 24 or 48 hours (i.e. totals of 48 hours or 72 hours respectively). Cells were harvested and analyzed by flow cytometry. Each dot on the dot plot represents one cell. Five thousand cells were assessed for forward scatter (FS), as a function of cell size, versus side scatter (SS), as a function of cellular granularity. The upper elipse represents live cells by these criterion and the lower elipse in each dot plot represents the dead cells.
HL60 MDR human leukemia cells were cultured as described above under “Materials and Methods”. Cells were untreated or treated with etomoxir, with 2-deoxy-D-glucose, or with a combination of etomoxir and 2-deoxy-D-glucose, at concentrations indicated in FIG. 27 for 24 hours. Cells were harvested and analyzed by flow cytometry.
Referring to FIGS. 31 and 32, HL60 MDR cells, cultured as described in Example 21, were untreated or treated with etomoxir, with 2-deoxy-D-glucose, or with a combination of etomoxir and 2-deoxy-D-glucose, at concentrations indicated in FIG. 31 for 48 hours. Cells were harvested and analyzed by flow cytometry.
Referring to FIGS. 35 and 36, HL60 MDR cells, cultured as described in Example 21, were treated with anti-UCP2 antibody and otherwise untreated or treated simultaneously with etomoxir, 2-deoxy-D-glucose, or both, at concentrations indicated in FIG. 35 for 48 hours. Cells were harvested and analyzed by flow cytometry.

[3] = test system: RD cells (rhabdomyosarcoma cells-not drug resistant); assay: percent death of RD cells (flow cytometry, live versus dead); assay type: cell-based
Protocol: The cells were cultured at a concentration of 0.5 to 1 million cells per ml. Cells were untreated or treated with or 2-deoxy-D-glucose and/or etomoxir and/or antibodies to UCP2 and used at dilutions or concentrations as indicated on the figure. The cells were cultured in the presence or absence of etomoxir at 100 micrograms/ml for 24 hours followed by treatment with antibody as indicated for an additional 24 or 48 hours (i.e. totals of 48 hours or 72 hours respectively). Cells were harvested and analyzed by flow cytometry. Each dot on the dot plot represents one cell. Five thousand cells were assessed for forward scatter (FS), as a function of cell size, versus side scatter (SS), as a function of cellular granularity. The upper elipse represents live cells by these criterion and the lower elipse in each dot plot represents the dead cells.
Referring to FIGS. 29 and 30, RD cells (rhabdomyosarcoma cells-not drug resistant), cultured as described above under “Materials and Methods” were untreated or treated with etomoxir, with 2-deoxy-D-glucose, or with a combination of etomoxir and 2-deoxy-D-glucose, at concentrations indicated in FIG. 29 for 24 hours. Cells were harvested and analyzed by flow cytometry.
Referring to FIGS. 33 and 34, RD cells, cultured as described in Example 22, were untreated or treated with etomoxir, with 2-deoxy-D-glucose, or with a combination of etomoxir and 2-deoxy-D-glucose, at concentrations indicated in FIG. 33 for 48 hours. Cells were harvested and analyzed by flow cytometry.
Referring to FIGS. 37 and 38, RD cells, cultured as described in Example 22, were treated with anti-UCP2 antibody and otherwise untreated or treated simultaneously with etomoxir, 2-deoxy-D-glucose, or both, at concentrations indicated in FIG. 37 for 48 hours. Cells were harvested and analyzed by flow cytometry.

HL60 MDR tumor = assay: tumor volume of HL60 MDR tumor implanted in nude mice; assay type: in vivo; settings: for tumor volume: 200 ug Etomoxir, 2.5 mM 2-Deoxy-D-glucose
Excerpt: Tumor implantation. Mice were purchased from the Animal Production Program of National Cancer Institute, Frederick, Md. The animals used were Athymic Ncr-nu/nu (strain code 01B74). HL60 MDR cells were harvested and reconstituted at 1 million cells per 100 microliters of phosphate buffered saline. One million tumor cells per injection site were implanted subcutaneously on two sites of the animal's back. Treatments began at exactly seven days post tumor implantation. Tumor size/volume was monitored twice weekly using measurement calipers, with the formula Tumor Volume=π×(short diameter)^2×(long diameter)/6.
Mice experiments with fatty acid metabolism and glucose metabolism inhibitors. Fatty acid metabolism inhibitors were exemplified by etomoxir at 200 micrograms/day. Glucose metabolism inhibitors were exemplified by 2-deoxy-D-glucose at 2.5 mM in 100 microliters daily. The combination was administered daily, etomoxir at 200 micrograms and 2-deoxy-D-glucose at 2.5 mM in 100 microliters. All drugs were administered intra-peritoneally. Fluorouracil, at 20 mg per kilogram mouse, was injected intra-peritoneally once a week
HL60 MDR human leukemia cells were cultured and implanted in nude mice as described above under “Materials and Methods”. The mice were given 200 ug of Etomoxir, 2.5 mM 2-Deoxy-D-glucose, or both 200 ug of Etomoxir and 2.5 mM 2-Deoxy-D-glucose given daily by IP injection. Treatment began exactly one week after tumor implantation.
Mice were purchased from National Cancer Institute, Animal Production Program (Frederick, Md.). The animals used were Athymic Ncr-nu/nu (Strain code 01B74). HL60 MDR cells were harvested and reconstituted at 1 million cells per 100 microliters of phosphate buffered saline. One million tumor cells/per injection site were implanted subcutaneously on two sites of the animal's back. Treatments began at exactly seven days post tumor implantation. Tumor size/volume was monitored twice weekly using measurement calipers with the formula for Tumor Volume=π(short diameter)^2(long diameter)/(divided by )6. […]

C/C=C/C/C=C/CCC(=O)[C@H]1O[C@H]1C(N)=O [cerulenin]
% Death (L1210 DDP; 7.0 Hours): 14%
% Death (L1210 DDP; 24 Hours): 92%
cell death compared to control and non-multidrug resistant cancer cells (L1210 DDP; after treatment with cerulenin): greater amounts of cell death
% Death (B16F1; 4 Hours (Table 1)): 0%
% Death (B16F1; 5.0 Hours (Table 2)): 67%
% Death (B16F1; 24 hours (Table 2)): 72%
% Death (B16F1; .0 Hours (Table 1)): 1%
% Death (HL60; 4 Hours (Table 1)): 4%
% Death (HL60; .0 Hours (Table 1)): 1%
cell survival in microscopy images (HL60; HL60 cells treated with cerulenin, FIG. 4C): large numbers of the cells survived
cell death in microscopy images (HL60 MDR; HL60 MDR cells treated with cerulenin, FIGS. 4E and 4F): large numbers of cell death
% Death (HL60 MDR; HL60 MDR, 4 Hours (Table 1)): 9.6%
% Death (HL60 MDR; HL60 MDR, .0 Hours (Table 1)): 3%
cell death compared to control and non-multidrug resistant cancer cells (HL60 MDR; HL60 MDR, after treatment with cerulenin): greater amounts of cell death
tumor observation and activity of mouse (B16F1 melanoma cells; Day 9): Day 9 no visible sign of tumors - very active
tumor observation and activity of mouse (B16F1 melanoma cells; Day 12): Day 12 no visible tumors - very active (FIG. 5D)
tumor observation and activity of mouse (B16F1 melanoma cells; Day 13): Day 13 no visible tumors - very active
development of lethal cancers (B16F1 melanoma cells; mice exposed to melanoma cells treated with cerulenin, during the experiment): did not develop lethal cancers
% Death (L1210; 7.0 Hours): 27%
% Death (L1210; 24 Hours): 89%

O=c1[nH]cc(F)c(=O)[nH]1 [5-FU, 5-Fluorouracil]
half-life in vivo [1]: about 18 minutes

OC[C@H]1O[C@H](O)CC(O)[C@@H]1O (stereo partly drawn) [2-deoxy-D-glucose]
percent of cell deaths ([2]; HL60 MDR cells after 24 hours): 16%
percent of cell deaths ([2]; HL60 MDR cells after 48 hours): 38%
percent of cell deaths ([3]; RD cells after 24 hours): 46%
percent of cell deaths ([3]; RD cells after 48 hours): 63%
tumor volume (HL60 MDR tumor; Day 7, daily IP from one week after implantation): 35 mm^3
tumor volume (HL60 MDR tumor; Day 9, daily IP): 51.56 mm^3
tumor volume (HL60 MDR tumor; Day 15, daily IP): 158.55 mm^3
tumor volume (HL60 MDR tumor; Day 21, daily IP): 1,181.61 mm^3
effect on tumor growth (HL60 MDR tumor; HL60 MDR in nude mice, 21 day period, single agent): increase in tumor growth
